Test results: US4931270A, “Method for detecting dopaminergic diseases using fluorine-18 radiolabelled D2 dopamine receptor ligands” (Nelson Research & Development, priority 1988, dated 1990)

Legend:
D1 -dopamine = target: T1, D1 -dopamine (Bos taurus, UniProt Q95136); test: Radioligand binding (displacement of 3H-SCH23390), bovine striatal membranes; conditions: bovine striatum membranes
T1 construct: Membranes derived from bovine striatum (for assaying dopamine receptors); from tissue; host or cells: bovine striatum membranes
T1 sequence (Q95136 whole entry): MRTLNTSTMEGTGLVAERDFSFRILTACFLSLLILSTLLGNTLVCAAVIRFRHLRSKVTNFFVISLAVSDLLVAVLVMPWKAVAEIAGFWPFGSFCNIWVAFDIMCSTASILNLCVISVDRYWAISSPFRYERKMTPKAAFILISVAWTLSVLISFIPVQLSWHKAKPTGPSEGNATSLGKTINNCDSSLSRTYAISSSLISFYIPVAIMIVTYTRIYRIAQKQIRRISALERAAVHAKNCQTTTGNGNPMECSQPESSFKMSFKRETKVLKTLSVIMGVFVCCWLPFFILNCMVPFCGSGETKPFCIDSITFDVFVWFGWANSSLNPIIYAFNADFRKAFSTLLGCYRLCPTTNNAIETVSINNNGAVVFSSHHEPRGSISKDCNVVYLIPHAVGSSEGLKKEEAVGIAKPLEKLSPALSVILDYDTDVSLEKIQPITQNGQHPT
Method: (§1) The selectivity of 2-[N-3-fluoropropyl-N-2-(2 thienyl)ethylamine]-5-hydroxytetralin has been investigated using radioligand binding assays to determine the binding affinity at different receptor types, namely D1 and D2 dopamine and α-adrenergicreceptor sites.
(§2) Membranes derived from bovine striatum (for assaying dopamine receptors) and rat cerebral cortex (for assaying α-adrenergic receptors) were prepared as follows. The tissue was homogenized using a tissue disrupter and centrifuged. The pellet was washed by resuspension and centrifugation. The bovine striatal membranes were […] and thawed just prior to use. […]

α-adrenergic = test: Radioligand binding (displacement of 3H-prazosin), rat cerebral cortex membranes
Method: as §1, §2

D2 -dopamine = target: T2, D2 -dopamine (Bos taurus, UniProt P20288); test: Radioligand binding (displacement of 3H-N-0437), bovine striatal membranes
T2 construct: Membranes derived from bovine striatum (for assaying dopamine receptors); from tissue; host or cells: bovine striatum membranes
T2 sequence (P20288 whole entry): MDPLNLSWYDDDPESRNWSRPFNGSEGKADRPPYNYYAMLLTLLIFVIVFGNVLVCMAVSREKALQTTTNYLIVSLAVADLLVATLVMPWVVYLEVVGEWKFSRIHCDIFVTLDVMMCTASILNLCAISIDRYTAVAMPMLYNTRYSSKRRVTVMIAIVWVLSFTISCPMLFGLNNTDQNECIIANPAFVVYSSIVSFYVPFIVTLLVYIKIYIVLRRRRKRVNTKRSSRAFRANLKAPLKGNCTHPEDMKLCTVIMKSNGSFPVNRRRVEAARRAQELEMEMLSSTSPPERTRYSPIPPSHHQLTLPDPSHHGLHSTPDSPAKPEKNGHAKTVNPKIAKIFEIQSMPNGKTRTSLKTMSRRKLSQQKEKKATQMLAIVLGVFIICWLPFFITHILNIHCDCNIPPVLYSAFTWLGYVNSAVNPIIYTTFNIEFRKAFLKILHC
Method: as §1
Membranes derived from bovine striatum (for assaying dopamine receptors) and rat cerebral cortex (for assaying α-adrenergic receptors) were prepared as follows. The tissue was homogenized using a tissue disrupter and centrifuged. The pellet was washed by resuspension and centrifugation. The bovine striatal membranes were […] and thawed just prior to use.
The radioligands ^3 H-prazosin, H^3 [((R)-(+)-8 chloro-2, 3, 4, 5-tetrahydro-3-methyl-5-phenyl-H-3-benzazepin-7-ol](^3 H-SCH23390), and H^3 [5-hydroxy-2-(N-n-propyl-N-2-[2-thienyl]ethylamino)tetralin] (^3 H-N-0437) were used to label α-adrenegic, D1 -dopamine and D2 -dopamine receptors, respectively. Increasing concentrations of 2-[N-3-fluoropropyl-N-2-(2-thienyl)ethylamine]-5-hydroxy-tetralin were used to displace the binding of these radioligands from their respective receptors. Competition binding curves were hand drawn to fit the data, and IC50 values were determined graphically. The IC50 value indicates the concentration of test drug required to displace from attachment at the receptor site of interst 50 percent of the ligands of known affinity already in attachment there.

Oc1cccc2c1CCC(N(CCCF)CCc1cccs1)C2 (stereo not drawn) [2-[N-3-Fluoropropyl-N-2-(2-thienyl)ethylamino]-5-hydroxytetralin]
IC50 (D1 -dopamine): > 10 µM
IC50 (α-adrenergic): 5.7 µM
affinity for dopamine D2 receptor sites (in words) (D2 -dopamine): unexpectedly high affinity
IC50 (D2 -dopamine; D2 -dopamine, 3H-N-0437, bovine striatum membranes): 0.00103 ± 0.00049 µM
times more potent in binding to D2 -dopamine receptors than to α-adrenergic receptors (D2 -dopamine; D2 versus α-adrenergic): more than 5000 times
selectivity for D2 -dopamine receptors (in words) (D2 -dopamine; versus D1 and α-adrenergic): selective for D2 -dopamine receptors
